Experimental findings from a melting point compilation (Tetko et al.; mined from patent text by program, amines drawn as free bases though some values may be those of a salt) are described below.

As usually defined, the melting point is the temperature of the solid-liquid transition.

`CCCc1cc(OC)c(OC)cc1Cc1cnc(N)nc1N` registered a melting point of 166 to 167 °C. Compound `CSc1cc(C(C)C)c(NC(=O)C2c3ccccc3COc3ccc(C)cc32)c(C(C)C)c1` (configuration not stated) returned a melting point of 126 °C. Consider `CC(=O)c1cccn1N1C(=O)c2ccccc2C1=O`, for which the melting point was 204 to 205 °C. `CCC(=O)c1ccc(OC)c(OC(=O)CCl)c1`: the melting point lay within 77 to 79.5 °C.

`CC(=O)c1cc(N(C)C)ccc1NC(=O)c1ccc(OCc2ccccc2)cc1` displayed a melting point of 139 to 140 °C. The compound `COC(=O)C1=C(C)NC(C)=C(C(=O)NCCOC(=O)N2CCC3(CC2)CC(=O)N(OC)C3=O)C1c1cccc([N+](=O)[O-])c1` (configuration not stated) yielded a melting point of 107 to 113 °C. In turn, `CCc1c(C)c(NC(=O)NCCO)c(C)c2c1OCC2c1ccc(C(C)C)cc1` (configuration not stated) had a melting point of 147 to 148 °C. In turn, `CC(=O)Oc1cnccc1CCCOc1cccnc1Oc1cccc(Br)c1` gave a melting point of 110 to 112 °C. Compound `COc1cc(N)c(-c2ncn[nH]2)cc1OC` showed a melting point of 205 to 210 °C. `Cc1c(Nc2c(C#N)cncc2-c2cc3cc(CN4CCN(C)CC4)ccc3o2)ccc2[nH]ccc12` showed a melting point of 162 to 165 °C. `C(=C\c1nc(COc2cccc(CCCn3ccnc3)c2)co1)/c1ccccc1` came in with a melting point of 86 to 87 °C. Take `Clc1ccc(-c2nc(-n3ccnc3)oc2CCC2=NCCO2)cc1`: the melting point was 120 to 121 °C. `CC(C)c1cc(Oc2c(Cl)cc(CP(=O)(O)O)cc2Cl)ccc1O` gave a melting point of 178 to 181 °C. Under `CC1=NCC(=S)Nc2ccc(Cl)cc21` stands 201 to 203 °C; under `C=CCONC(CCC)=C1C(=O)OC(CCC)=C(Br)C1=O`, 50 to 51 °C; under `CCc1nc2c(N)nc3cc(CCC(=O)N4CCSC4)ccc3c2n1CC(C)(C)O`, 210 to 212 °C. `CCC(=O)N1Cc2c(-c3noc(C4CC4)n3)ncn2-c2ccccc21`: the melting point was 175 to 176 °C. With `O=C(Nc1ccc(Cl)c(Cl)c1)c1cc(C(F)(F)F)cc([N+](=O)[O-])c1Cl`, the melting point was 202 °C.

Compound `S=C(N1CCC(c2ccccc2)(c2ccccc2)CC1)n1ccnc1` displayed a melting point of 161 to 165 °C. Compound `CC(c1ccc(-c2ccccc2)c(F)c1)c1nc(CCCl)no1` (configuration not stated) displayed a melting point of 72 to 72.5 °C. For the compound `COc1cc(CNC(=O)c2oc(=O)c3ncccc3c2-c2ccc(C)cc2)cc(OC)c1`, the melting point lay in the range of 154 to 155 °C.

The compound `COC(=O)c1ccccc1SC1=C(O)CC(CCC(C)C)(c2ccccc2)OC1=O` (configuration not stated) displayed a melting point of 115 to 116 °C.

In the case of `COc1ccc(-c2ccc(C(=O)Nc3cc4ncc(CN5CCCCCC5)cc4cc3C)cc2)cc1`, the melting point came out at 161 °C. The result for `CCCCCCN(Cc1ccc(N(C)C)cc1)c1c(N[C@@H](Cc2ccccc2)C(=O)O)c(=O)c1=O` reads 77 to 80 °C; that for `Cc1cccc(C)c1N(CCl)C(=O)c1ccccc1`, 133 °C; that for `CCOc1ccc2c(c1)C(C)(c1ccccc1O)C(=O)N2S(=O)(=O)c1ccc(C(=O)NC(C)(C)C)cc1` (configuration not stated), 180 °C. `CN1Sc2ccccc2C(=O)C1C(=O)Nc1coc2ccccc2c1=O` (configuration not stated) gave a melting point of 290 °C. `O=C(O)c1ccc2c(c1)OCC(=O)N2Cc1ccccc1` came in with a melting point of 230 °C. Under `CCCCCCCCCCCCCCCCCCCCCCSCCC(=O)NN` stands 106 °C; under `CCC(Nc1ccccc1C(=O)O)c1nccnc1OCc1ccccc1` (configuration not stated), 142 °C; under `COc1c(C(=O)O)n(Cc2ccccc2)c2ccccc12`, 115 to 117 °C.

Regarding `CCN(CC)c1ccc(C2(CNC(=O)Nc3c(C(C)C)cccc3C(C)C)CCCC2)cc1`, the melting point fell in the range of 138 to 140 °C. `CSC1C=C2C=CC=CN2N1[N+](=O)[O-]` (configuration not stated): the melting point came out at 225 °C.

Regarding `CCN1CCN(c2nc(-c3ccc(OC)cc3)nc3sc(C#N)c(C)c23)CC1`, the melting point is 173 to 175 °C.

`CC(=O)N1C(=O)Cc2cc(F)c(N3C(=O)C4=C(CCCC4)C3=O)cc21` gave a melting point of 191 to 194 °C.

Compound `CC(=O)Oc1ccc(-c2cnc(C)nc2Cl)cc1OC(C)=O` had a melting point of 111 °C. The result for `CC(=O)OC1C(Oc2cccc(O)c2C(=O)CCc2ccc3occc3c2)OC(CO)C(O)C1OC(C)=O` (configuration not stated) reads 127 to 129 °C; that for `CCOP(=O)(CC1(O)CC=Cc2ccccc21)OCC` (configuration not stated), 120 to 121 °C; that for `N#Cc1cccc(/C=C/C2=CCN(Cc3c[nH]c4ncccc34)CC2)c1`, 213 to 215 °C.

For `COC(=O)c1cc(-n2c(Cl)nc(C(F)(F)F)cc2=O)c(F)cc1Cl`, the melting point was in the range of 89 to 91 °C.

`COCc1c(N2CCN(C)CC2)c(F)cc2c(=O)c(C(=O)OC)cn(C3CC3)c12` gave a melting point of 200 to 204 °C. `COC(C)c1ccc(OCCCN2CCC(c3noc4cc(F)ccc34)CC2)c(O)c1` (configuration not stated) displayed a melting point of 98 to 100 °C. `O=C1CCC(N2Cc3c(CNC(=O)c4ccccn4)cccc3C2=O)C(=O)N1` (configuration not stated) showed a melting point of 254 to 256 °C. For `O=C1OCCC=C1c1ccc(F)c(F)c1`, the melting point was in the range of 72 to 78 °C. `N#CCCN1CC2C(C1)C2Nc1ncc2cc(-c3ccccc3Cl)c(=O)n(C3CC3)c2n1` (configuration not stated) returned a melting point of 150 to 152 °C.

With `COc1cc(N2CCCN(C3CCN(C)CC3)CC2)ccc1Nc1ncc2ccc(-c3ccccc3N(C)S(C)(=O)=O)n2n1`, the melting point was in the range of 90 to 97 °C.

Compound `COc1cc2c(cc1Cl)CC(=O)NN=C2c1ccc([N+](=O)[O-])cc1` yielded a melting point of 258 to 262 °C.

For `NC1=NS(=O)(=O)c2sc(Cl)cc2N1`, the melting point is above 361 °C. The compound `CC(C)(C)c1ccc(OCC(=O)NCc2ccc(NS(C)(=O)=O)c(O)c2)cc1` gave a melting point of 112 °C. `COc1ccc(-c2nc(Br)c(C(F)(F)F)[nH]2)cc1` returned a melting point of 177 to 178 °C. Regarding `O=C(O)Cc1cc(Br)c2c(c1)CCC(C(F)(F)F)N2` (configuration not stated), the melting point was 111 to 112 °C. In the case of `CCc1[nH]n(C2CCCC2)c2nc(-c3ccc(OC)c(OCCN4CCOCC4)c3)nc(=O)c1-2`, the melting point was in the range of 205 to 206 °C. Take `COc1ccc(C(=O)N2c3ccccc3C(n3c4ccccc4c4ccccc43)CC2CCCCCN2CCC(c3cccc(C(F)(F)F)c3)CC2)cc1OC` (configuration not stated): the melting point lay in the range of 149 to 150 °C. As for `C#CCOC(=O)[C@H](Cc1c[nH]cn1)NC(=O)C(Cc1cccc2ccccc12)Cc1cccc2ccccc12`, the melting point lay in the range of 187 to 189 °C. Take `CCCCCCCCCCCCCCCCCCOCCO`: the melting point is 39 to 41 °C.

`CN(CCCNc1ncc(Cc2ccc(O)cc2)c(=O)[nH]1)c1ccccn1`: the melting point lay in the range of 109 to 111 °C. With `CC(C)(C)CC(C)(C)C(CCC(=O)OO)CC(=O)OO` (configuration not stated), the melting point was 60 to 62 °C.

Take `COc1ccc(-c2nnc3c4ccccc4c(Nc4ccc(-c5nn[nH]n5)cc4)nn23)cc1`: the melting point is 281 to 284 °C. The compound `Cc1c(NC(=O)CC(C)(C)C)cc2c(c1C)OC(C)(C)C2Nc1ccccc1OC(F)(F)F` (configuration not stated) registered a melting point of 196 to 197 °C. The result for `Nc1cncc(NC(=S)NC2CCCCC2)c1` reads 114 to 116 °C; that for `O=S1(=O)c2cccc3cccc(c23)N1CCCCN1CC=C(c2ccccc2)CC1`, 101 °C. In turn, `COC(=O)c1cccc2oc(CBr)nc12` had a melting point of 110 to 113 °C.

The compound `OC(CSc1nc[nH]n1)(Cn1cncn1)c1ccc(Cl)cc1Cl` (configuration not stated) displayed a melting point of 180 to 182 °C. In turn, `O=[N+]([O-])c1c(F)cc(Cl)c2nc(Cl)sc12` came in with a melting point of 110 to 112 °C.

In turn, `CC(CNC(=O)c1cccc(Oc2ccccc2)c1)N(O)C(N)=O` (configuration not stated) registered a melting point of 189 to 190 °C.

As to `CC(C)CCCCCCCC=CC1CC(=O)N(NC(=O)CCc2cc(C(C)(C)C)c(O)c(C(C)(C)C)c2)C1=O` (configuration not stated), the melting point lay in the range of 62 to 68 °C. Compound `C=C(Cl)CS(=O)(=O)NC(=O)c1nc(OC)cc(OC)n1` displayed a melting point of 125 to 130 °C. `CCOC(=O)c1cc2c(C)ccc3c2n1CCC3` gave a melting point of 51 to 52 °C. `COc1ccc(Cn2c(=O)cc(-c3ccccn3)c3cnc(N4CCC[C@H]4CO)nc32)cc1Cl` displayed a melting point of 184 to 186 °C. The compound `COc1ccc(-c2n[nH]c3ccc([N+](=O)[O-])cc23)cc1` came in with a melting point of 153 °C.

The compound `O=C(CSCCOc1ccccc1)NNC(=O)c1ccc(Cl)nc1` came in with a melting point of 136 to 138 °C.

`CC(C)C(NC(=O)N1CCc2cc(S(=O)(=O)N3CCN(c4cccc(Cl)c4)CC3)ccc21)C(=O)O` (configuration not stated) displayed a melting point of 185 to 186 °C. `CNC(=O)C(=NOC)c1c(F)cccc1COc1ccccc1C`: the melting point is 93 °C.

Compound `CCC(Oc1ccc(Cl)c(C)c1)C(=O)NCc1ccccc1` (configuration not stated) yielded a melting point of 95 to 97 °C. In turn, `O=C1C2CCCCC2C(=O)N1c1cc(C(F)(F)F)cc(C(F)(F)F)c1` (configuration not stated) yielded a melting point of 85 to 87 °C. The result for `COCOc1c(-c2ccccc2)sc2cnccc12` reads 55 to 56 °C; that for `COc1cc(NC(=O)c2ccccc2Cl)ccc1C(=O)N1CCCC(OCCNS(=O)(=O)C(F)(F)F)c2cc(Cl)ccc21` (configuration not stated), 140 to 142 °C; that for `COc1cc(CO)ccc1OCc1nc(-c2ccccc2)sc1C`, 134 to 135 °C.

With `Cc1ccc(C(=O)CCCCCBr)cc1C`, the melting point lay in the range of 61 to 63 °C. The result for `Fc1cc(CC2(Cc3ccnc(F)c3)c3ccccc3-c3nccnc32)ccn1` reads 119 to 120 °C; that for `CCCCSc1c2c(=O)n(C)c(=O)n(CC(C)C)c2cn1Cc1cccc2ccccc12`, 92 to 94 °C; that for `Cc1[nH]n(C(C)(C)C)c2nc(Cc3ccccc3)nc(=O)c1-2`, 196 to 197 °C. Turning to `CCCCCCCC(=O)NCCCCCO`, the melting point lay in the range of 62 to 63 °C. `Nc1ccc(S(=O)(=O)Nc2ccccc2C(=O)NCCCn2ccnc2)cc1`: the melting point lay within 171 to 175 °C. Under `Cn1nnnc1SCCSc1ccccn1` stands 77 to 79.5 °C; under `C[C@H](NC(=O)Cc1cc(F)cc(F)c1)C(=O)N[C@@H]1C(=O)NCCS[C@@H]1c1ccccc1`, 128 to 133 °C; under `COc1ccccc1Oc1c(NS(=O)(=O)c2cc(Cl)sc2Cl)nc(-c2ncccn2)nc1OCCOC(=O)Nc1ccccn1`, 194 to 197 °C.
